Experimental data taken from US20250296938A1, “Compounds that Interact with the Ras Superfamily for the Treatment of Cancers, Inflammatory Diseases, Rasopathies, and Fibrotic Disease” (SHY Therapeutics, LLC, priority 2018, published 2025).
Like-named read-outs stand apart in the source and are kept apart here.

What was measured:
Assay in all cases: Ras GTP binding domain inhibition assay (Cy3-GTP/Cy5-GTP competition)
[1] = molecular target: T1, KRas G12D mutant (Homo sapiens, UniProt P01116, G12D); conditions: 20 μM
T1 construct: fused on or other part: His tag, used for capture on nickel-coated plates
In short: (§1)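 His-tagged Ras immobilized on nickel-coated wells in Tris buffer (pH 7.4 or 7.0) with 1 mM MgCl2, 1 mM DTT, 1% DMSO. Compound (20 μM, or serial dilution for IC50) incubated 3 hours at room temperature, ± Sos (residues 556-1049) in final hour. Bound 100 nM Cy3-/Cy5-GTP read after 45 minutes and washing.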

[2] = system: KRas G12C mutant; design: species or system human; conditions: 20 μM; for KRas G12C mutant + SOS: % inh.: with SOS (Table 7A); for KRas G12C mutant: % inh.: without SOS (Table 7A)
In short: as §1

[3] = system: KRas Q61H mutant; design: species or system human; conditions: 20 μM; for KRas Q61H mutant + SOS: % inh.: with SOS (Table 7A); for KRas Q61H mutant: % inh.: without SOS (Table 7A)
In short: as §1

[4] = system: KRas wild type; design: species or system human; conditions: 20 μM; for KRas wild type + SOS: % inh.: with SOS (Table 7A); for KRas wild type % inh.: without SOS (Table 7A)
In short: as §1

[5] = with SOS (Table 7A), read-out: KRas G12D mutant + SOS: % inh.
[6] = without SOS (Table 7A), read-out: KRas G12D mutant: % inh.

Row | inhibition at 20 µM [1, 5] [%] | inhibition at 20 µM [1, 6] [%] | KRas G12C mutant + SOS: % inh. [2] | KRas G12C mutant: % inh. [2] | KRas Q61H mutant + SOS: % inh. [3] | KRas Q61H mutant: % inh. [3] | KRas wild type + SOS: % inh. [4] | KRas wild type % inh. [4] | Structure (SMILES)
1 | 51 to 75 | 1 to 25 | C (51-75% inhibition) | A (1-25% inhibition) | C (51-75% inhibition) | B (26-50% inhibition) | C (51-75% inhibition) | B (26-50% inhibition) | COC1CCN(c2nc(-c3nccn3C)nc3sc(-c4cccc(O)c4F)c(-c4ccccc4)c23)C1 (centres unmarked) [drawing 890]
2 | 51 to 75 | 26 to 50 | D (76-100% inhibition) | C (51-75% inhibition) | D (76-100% inhibition) | D (76-100% inhibition) | D (76-100% inhibition) | C (51-75% inhibition) | COc1cccc(-c2sc3nc(-c4nccn4C)nc(N[C@H]4C[C@@H](OC)C4)c3c2-c2ccccc2)c1F [drawing 891]
3 | 76 to 100 | 51 to 75 | D (76-100% inhibition) | D (76-100% inhibition) | D (76-100% inhibition) | D (76-100% inhibition) | D (76-100% inhibition) | D (76-100% inhibition) | CO[C@H]1C[C@@H](Nc2nc(-c3nccn3C)nc3sc(-c4cnn(C)c4)c(-c4ccccc4)c23)C1 [drawing 892]
4 | 51 to 75 | 76 to 100 | C (51-75% inhibition) | D (76-100% inhibition) | C (51-75% inhibition) | C (51-75% inhibition) | C (51-75% inhibition) | C (51-75% inhibition) | COc1cccc(-c2sc3nc(-c4nccn4C)nc(NC4CCC(OC)C4)c3c2C)c1F (centres unmarked) [drawing 893]
5 | 51 to 75 | 26 to 50 | D (76-100% inhibition) | B (26-50% inhibition) | D (76-100% inhibition) | B (26-50% inhibition) | D (76-100% inhibition) | B (26-50% inhibition) | COC1CCC(Nc2nc(-c3nccn3C)nc3sc(-c4cccc5[nH]ncc45)c(C)c23)C1 (centres unmarked) [drawing 895]
6 | 51 to 75 | 51 to 75 | C (51-75% inhibition) | C (51-75% inhibition) | C (51-75% inhibition) | D (76-100% inhibition) | C (51-75% inhibition) | C (51-75% inhibition) | COCCn1ccnc1-c1nc(O)c2scc(-c3ccc(OCC(C)C)nc3)c2n1 [drawing 898]
7 | 51 to 75 | 76 to 100 | C (51-75% inhibition) | C (51-75% inhibition) | D (76-100% inhibition) | C (51-75% inhibition) | C (51-75% inhibition) | D (76-100% inhibition) | CC(C)COc1ccc(-c2csc3c(O)nc(-c4nccn4Cc4ccccn4)nc23)cn1 [drawing 899]
8 | 51 to 75 | 51 to 75 | B (26-50% inhibition) | C (51-75% inhibition) | C (51-75% inhibition) | C (51-75% inhibition) | B (26-50% inhibition) | C (51-75% inhibition) | COc1cccc(Cn2ccnc2-c2nc(O)c3scc(-c4ccc(OCC(C)C)nc4)c3n2)c1 [drawing 900]
9 | 26 to 50 | 26 to 50 | A (1-25% inhibition) | B (26-50% inhibition) | B (26-50% inhibition) | B (26-50% inhibition) | A (1-25% inhibition) | B (26-50% inhibition) | CO[C@H]1CC[C@@H](Nc2nc(-c3nccn3C)nc(C(=O)N3CCc4c(O)cccc4C3)c2C)C1 [drawing 901]
10 | 51 to 75 | 51 to 75 | C (51-75% inhibition) | C (51-75% inhibition) | C (51-75% inhibition) | D (76-100% inhibition) | C (51-75% inhibition) | C (51-75% inhibition) | CO[C@H]1C[C@@H](Nc2nc(-c3ccccn3)nc3sccc23)C1 [drawing 902]
11 | 76 to 100 | 76 to 100 | D (76-100% inhibition) | D (76-100% inhibition) | D (76-100% inhibition) | D (76-100% inhibition) | D (76-100% inhibition) | C (51-75% inhibition) | CO[C@H]1C[C@@H](Nc2nc(-c3nccn3C)nc3sccc23)C1 [drawing 903]
12 | 26 to 50 | 26 to 50 | B (26-50% inhibition) | B (26-50% inhibition) | B (26-50% inhibition) | C (51-75% inhibition) | A (1-25% inhibition) | A (1-25% inhibition) | Cn1ccc(-c2sc3nc(-c4nccn4C)nc(O)c3c2-c2ccccc2)n1 [drawing 904]
13 | 51 to 75 | 26 to 50 | D (76-100% inhibition) | C (51-75% inhibition) | D (76-100% inhibition) | C (51-75% inhibition) | D (76-100% inhibition) | C (51-75% inhibition) | CO[C@H]1C[C@H](Nc2nc(-c3nccn3C)nc3sc(-c4ccn(C)n4)c(-c4ccccc4)c23)C1 [drawing 906]
14 | 51 to 75 | 26 to 50 | C (51-75% inhibition) | C (51-75% inhibition) | D (76-100% inhibition) | C (51-75% inhibition) | C (51-75% inhibition) | C (51-75% inhibition) | CN(C)CCOCCNc1nc(-c2nccn2C)nc2sc(-c3ccn(C)n3)c(-c3ccccc3)c12 [drawing 907]
15 | 0 | 0 | A (1-25% inhibition) | A (1-25% inhibition) | 0 (0% inhibition) | A (1-25% inhibition) | 0 (0% inhibition) | A (1-25% inhibition) | Cn1ccc(-c2sc3nc(-c4nccn4C)nc(N[C@H]4C[C@@H](O)C4)c3c2-c2ccccc2)n1 [drawing 908]
16 | 26 to 50 | 26 to 50 | B (26-50% inhibition) | B (26-50% inhibition) | B (26-50% inhibition) | C (51-75% inhibition) | A (1-25% inhibition) | B (26-50% inhibition) | CO[C@H]1C[C@@H](Nc2nc(-c3ncc[nH]3)nc3sc(-c4ccn(C)n4)c(-c4ccccc4)c23)C1 [drawing 910]
17 | 51 to 75 | 26 to 50 | C (51-75% inhibition) | C (51-75% inhibition) | C (51-75% inhibition) | B (26-50% inhibition) | C (51-75% inhibition) | C (51-75% inhibition) | CO[C@H]1CC[C@@H](Nc2nc(-c3ncc[nH]3)nc3sc(-c4ccn(C)n4)c(-c4ccccc4)c23)C1 [drawing 911]
18 | 51 to 75 | 51 to 75 | D (76-100% inhibition) | C (51-75% inhibition) | D (76-100% inhibition) | D (76-100% inhibition) | D (76-100% inhibition) | D (76-100% inhibition) | CO[C@H]1CC[C@@H](Nc2nc(-c3nccn3C)nc3sc(-c4ccn(C(C)C)n4)c(-c4ccccc4)c23)C1 [drawing 912]
19 | 1 to 25 | 26 to 50 | A (1-25% inhibition) | A (1-25% inhibition) | A (1-25% inhibition) | B (26-50% inhibition) | A (1-25% inhibition) | B (26-50% inhibition) | COc1nc(-c2ccccn2)nc2c(-c3ccccn3)csc12 [drawing 913]
